{"source": "patent US20210221791A1", "about": "“COMPOUNDS” (UNIVERSITETET I OSLO, priority 2016, published 2021)", "key": {"[1]": {"tested_on": "resistant gram-negative MBL-based bacteria", "assay": "MICx: lowest adjuvant concentration giving carbapenem MIC ≤2 mg/L", "format": "cell-based", "details": "25 mg/L Example 26; K66-45 and K34-7; meropenem and doripenem"}, "[2]": {"tested_on": "K. pneumoniae K66-45 (NDM-1)", "assay": "Microbroth dilution MIC of carbapenem with/without inhibitor", "format": "cell-based", "details": "K. pneumoniae NDM-1", "experimental": "• Plate bacterial strain(s) on appropriate media: • Gram-negative bacteria with ESBLs or carbapenemases: green agar plates with 100 mg/L ampicillin • Gram-negative bacteria without β-lactamases: green agar plates • Gram-positive bacteria (Staphylococci and Enterococci): blood agar plates • Incubate o.n. at 37° C.\n(Should be used within 15 min of preparation). • Dilute the 0.5 McFarland suspension 1:100 into MH broth. […] Plate 10 μl of the dilution on MH agar plates (×2). Incubate o.n. at 37° C., count the colonies and calculate the final CFU/ml inoculum in the plate by multiplying the average number of colonies with 10000 and divide by 2. The final inoculum should be between 3-7×10^5 CFU/ml. • Add 50 μl of the prepared bacterial suspension to each well in the microtiter plate except negative growth control.\n• Calculate the desired concentration-range and volume of the compounds/antibiotics in the assay. […] Dilute the stock solution in MH broth. Make subsequent 2-fold dilutions in MH broth of the desired concentrations if a concentration range is to be tested (remember the extra dilution factor in the assay plate). Always include extra volume for pipetting. Take into consideration stock solutions that are made in buffers that have an effect on bacterial growth (e.g. DMSO)."}, "[3]": {"tested_on": "P. stuartii harboring an MBL", "assay": "MIC of meropenem on strains harboring an MBL (Example 198)", "format": "cell-based", "details": "P. stuartii (NDM)"}, "[4]": {"tested_on": "meropenem-resistant E. coli", "assay": "Checkerboard MIC assay of Example 26 and meropenem", "format": "cell-based", "details": "for some of the E. coli / K. pneumonia strains", "experimental": "A checkerboard MIC assay was using the broth dilution method according to CLSI guidelines. […] Dilutions to 4 mg/ml was performed by adding+4.75 ml sterile saline to 0.25 ml of the stock solution, and dilutions to 512 μg/ml was performed by adding 10.9 ml MH-broth to the 4 mg/ml solution. Inoculums of bacterial strains as described in Table 4 were prepared by suspending fresh overnight colonies from 5% horse blood agar were to a turbidity of 0.5 McFarland and further diluted to 1×10^6 CFU/ml in MH-broth. Aliquots of 50 μl of MH-broth were added to each well of polystyrene microtiter plates. […] The plates were incubated at 35° C., 16-20 hours."}, "[5]": {"tested_on": "resistant clinical isolate of Klebsiella pneumoniae harboring NDM-1", "assay": "Time-kill study with meropenem", "format": "cell-based", "details": "Example 26 + 4 mg/L meropenem, irrespective of Example 26 concentration; stays below LOD for 30 hrs", "experimental": "Mueller-Hinton broth (MHB) was warmed from fridge temperature cold. […] A sample of Example 26 was dissolved in DMSO.\nThe 96-well plates were prepared using a multi-channel pipette, adding […] PBS to columns 2-9, or the required number of dilutions needed in the experiment. Each Inoculum was prepared by picking a single colony from the fresh plate that was disperged into 1 mL MHB, the loop was agitated to ensure all the colony comes off the loop. The tube was Vortex mixed, and a 100 μL aliquot was taken from the tube into 9.9 mL of MHB into the media bottle. […] The procedure was repeated for as many samples needed in the study. Aliquots of 5 mL inoculum were transferred to as many media bottles as needed, e.g. 4 mg/L MEM, 4 mg/L MEM+50 μM test substance, 4 mg/L MEM+100 μM test substance. Then […] aliquots were taken from each culture and added to Column 1 on the 96 well plate, e.g. culture 1: 50 μl into A1, […] into B1 etc. for time point 0 h. Then […] MEM was added into each bottle, followed by the required amount of test substance. The bottles were mixed gently to avoid formation of bubbles, and incubated in a secondary container at 37° C. at 180 rpm. Finally, serial dilutions were performed using multi-channel pipette taking 30 μL for column 1, adding to column 2, mixing well, repeating from column 2 to 3 with clean pipette tips."}, "VIM-2": {"target": "VIM-2 (Escherichia coli, UniProt Q5U7L7)", "format": "biochemical", "experimental": "The eluent used was Chelex-treated HEPES 50 mM buffer, pH 7.5. […] In all experiments, 16 aliquots of 250 μL were taken from the PD-10 column runsout and enzyme activity was analysed. Enzyme activity was measured by adding Nitrocefin as a reporter substrate (final concentration of 50 μM).\nTo investigate if more extreme time-dependent and concentration-dependent conditions could restore enzyme activity, aliquots having final concentrations of 30 nM column-treated enzyme and 1000 μM Zn^2+ on ice and at room temperature over prolonged time."}, "rH glyoxylase II": {"target": "rH glyoxylase II (Homo sapiens, UniProt Q16775)", "assay": "Interaction with zinc-containing human enzyme", "format": "biochemical", "details": "62.5-500 μM, 30 min, 25° C., 0.4 ng/μL enzyme", "experimental": "The initial reaction velocity was measured at 405 nm. EDTA was included as a representative example of the APC chelator class described above."}, "[6]": {"assay": "Solution stability measured indirectly by MIC studies", "format": "physicochemical", "details": "stored up to 8 months at 2-8° C.; 25 mg/L inhibitor; P. aeruginosa VIM-2 and K. pneumonia NDM-1", "text": "P. aeruginosa harboring VIM-2 and K. pneumonia bearing NDM-1 was used as two indicator strains."}, "[7]": {"tested_on": "Klebsiella pneumoniae strain 50752501 harbouring NDM-1", "assay": "In vivo infection study in neutropenic mice", "set-up": "species or system Klebsiella pneumoniae; host NMRI mice", "details": "for Score at sampling: sampling T = 5 h; for lower CFU levels compared to vehicle treatment: combination Example 26 (10-100 mg/kg) and meropenem 33 mg/kg", "experimental": "The purpose of this study was to investigate the synergy between a typical example of the present invention and a state of art carbapenem in a clinically relevant multiresistant Gram-negative bacterial strain harboring a metallo-β-lactamase in the treatment of live mice infected with the bacterial strain.\nThe mice were rendered neutropenic by injecting 0.5 ml cyclophosphamide solution intraperitoneally 4 days (approximately 200 mg/kg) and 1 day (approximately 100 mg/kg) prior to inoculation.\nFresh overnight colonies from a 5% Horse Blood Agar plate were suspended and diluted in sterile saline to approximately and 10^7 CFU/ml. Mice were inoculated intraperitoneally with 0.5 ml of the suspension. Approximately ½ hr prior to inoculation, mice were treated orally with 45 μl neurophen (20 mg ibuprofen/ml corresponding to approximately 30 mg/kg) as a pain relief.\nMice were treated subcutaneously in the neck region with.\nColony counts were determined from blood and peritoneal fluid at 1 and 5 hrs post inoculation. […] The mice were sacrificed immediately after blood sampling and a total of 2 ml sterile saline was injected i.p. and the abdomen gently massaged before it was opened and fluid sampled with a pipette. Each sample was then 10 fold serial diluted in saline and 20-μl spots, ranging from undiluted to a 10^6 dilution, were applied on agar plates in duplicates. […] All agar plates were incubated 18-22 hrs at 35° C. in ambient air."}, "[8]": {"tested_on": "strains producing Klebsiella pneumoniae carbapenemases (KPC)", "assay": "Adjuvant activity with a carbapenem against KPC producers", "format": "cell-based", "details": "adjuvant together with a carbapenem"}, "[9]": {"tested_on": "human serum albumin and α1-acid glycoprotein (AGP)", "details": "500 μM Example 26; HSA:AGP 24:1 up to 140 μM", "quoted_text": "Enzymes in the kit are immobilized at a solid phase. […] Buffer without inhibitor was included as a control. After incubation, the suspensions were centrifuged and diluted 1:10 in 50 mM HEPES buffer pH 7.5 supplemented with 1 μM zinc^2+ and VIM-2 (final concentration 1 nM)."}, "[10]": {"tested_on": "C. freundii harboring an MBL", "assay": "MIC of meropenem on strains harboring an MBL (Example 198)", "format": "cell-based", "details": "C. freundii (NDM)"}, "[11]": {"tested_on": "K. pneumoniae harboring an MBL", "assay": "MIC of meropenem on strains harboring an MBL (Example 198)", "format": "cell-based", "details": "K. pneumoniae (NDM); each table line a different strain"}, "K. pneumoniae K66-45": {"tested_on": "K. pneumoniae K66-45", "format": "cell-based", "details": "inhibitor 25 mg/L", "experimental": "After plating and grown overnight at 37° C., only single colonies, ignoring any touching the edges of the plate, were counted.\n10^9 CFU K66-45 (Mueller-Hinton broth, no selection) was plated and grown overnight, 37° C. Only single colonies, ignoring any touching the edges of the plate, were counted."}}, "note": "“And” between values parts separate entries of the source, which are not always exact repeats. Equal values may be shown once. “Also recorded” adds a separate entry of the source. Where a name gives a salt, the structure may show the parent alone. Read-outs that look alike come from different tables or passages of the source."}
{"smiles": "CN(C[C@H](O)[C@@H](O)[C@H](O)[C@H](O)CO)C(=O)c1ccc(CN(Cc2ccccn2)Cc2ccccn2)nc1", "note": "[Example 26, 6-((bis(pyridin-2-ylmethyl)amino)methyl)-N-methyl-N-((2S,3R,4R,5R)-2,3,4,5,6-pentahydroxyhexyl)nicotinamide]", "values": [{"measurement": "potentiates carbapenems with a factor", "setting": "[1]", "result": "32-256 times"}, {"measurement": "MIC Value in K66-45 (MIC of carbapenem)", "setting": "[2]; doripenem (DOR) + 25 mg/L Example 26, batches 1-3", "result": "0.25 µg/mL and 0.125 µg/mL"}, {"measurement": "MIC Value in K66-45 (MIC of carbapenem)", "setting": "[2]; meropenem (MEM) + 25 mg/L Example 26, batches 1-3", "result": "0.125 µg/mL and 0.25 µg/mL"}, {"measurement": "MIC meropenem + 25 mg/L Example 26 / Example 195", "setting": "[3]", "result": 0.25, "unit": "µg/mL"}, {"measurement": "amplification of the effect of meropenem", "setting": "[4]", "result": "> 1000", "unit": "times"}, {"measurement": "time after which CFU drops to below the limit of detection (LOD)", "setting": "[5]", "result": "5 to 10", "unit": "h"}, {"measurement": "enzyme activity restored by ZnSO4", "setting": "VIM-2; 15 nM impaired VIM-2 from Example 207C spiked with 0-100 μM ZnSO4", "result": 40, "unit": "%"}, {"measurement": "irreversibility of VIM-2 inhibition", "setting": "VIM-2; purified VIM-2, PD-10 column, EDTA at 100 μM", "result": "irreversibly inhibits VIM-2; also recorded: irreversibly inhibited"}, {"measurement": "interaction with rH glyoxylase II", "setting": "rH glyoxylase II", "result": "does not interact with rH glyoxylase II"}, {"measurement": "solution stability (adjuvant activity in MIC studies after storage)", "setting": "[6]", "result": "no loss of activity even after 8 months storage time"}, {"measurement": "reduction of the CFU levels compared to vehicle treatment", "setting": "[7]; 10-100 mg/kg Example 26 alone, blood and peritoneal fluid", "result": "did not result in reduction of the CFU levels"}, {"measurement": "Score at sampling", "setting": "[7]; Example 26 10 mg/kg s.c. + meropenem 33 mg/kg, mice 5-8", "result": 2}, {"measurement": "Score at sampling", "setting": "[7]; Example 26 10 mg/kg s.c. + vehicle, mice 17-20", "result": 2}, {"measurement": "Score at sampling", "setting": "[7]; Example 26 33 mg/kg s.c. + meropenem 33 mg/kg, mice 9-12", "result": 1}, {"measurement": "Score at sampling", "setting": "[7]; Example 26 33 mg/kg s.c. + vehicle, mice 21-24", "result": 1}, {"measurement": "Score at sampling", "setting": "[7]; Example 26 100 mg/kg s.c. + meropenem 33 mg/kg, mice 13-16", "result": 1}, {"measurement": "Score at sampling", "setting": "[7]; Example 26 100 mg/kg s.c. + vehicle, mice 25-28", "result": 1}, {"measurement": "lower CFU levels compared to vehicle treatment", "setting": "[7]; blood", "result": "3.95-4.38 log10"}, {"measurement": "lower CFU levels compared to vehicle treatment", "setting": "[7]; peritoneal fluid", "result": "3.57-3.66 log10"}, {"measurement": "activity against KPC-producing strains", "setting": "[8]", "result": "does not show activity"}, {"measurement": "effect of protein binding on inhibitory activity on VIM-2", "setting": "[9]", "result": "protein binding is not affecting the inhibitory activity"}]}
{"smiles": "C[C@@H](N)C(=O)N[C@H](C)C(=O)NCCc1ccc(NC(=O)c2ccc(CN(Cc3ccccn3)Cc3ccccn3)nc2)cc1", "note": "[Example 195, N-(4-(2-((R)-2-((R)-2-aminopropanamido)propanamido)ethyl)phenyl)-6-((bis(pyridin-2-ylmethyl)amino)methyl)nicotinamide hydrochloride, reference compound]", "values": [{"measurement": "MIC meropenem + 25 mg/L Example 26 / Example 195", "setting": "[10]", "result": 0.06, "unit": "µg/mL"}, {"measurement": "MIC meropenem + 25 mg/L Example 26 / Example 195", "setting": "[3]", "result": 0.25, "unit": "µg/mL"}, {"measurement": "MIC meropenem + 25 mg/L Example 26 / Example 195", "setting": "[11]", "result": 0.06, "unit": "µg/mL"}, {"measurement": "RF - no of colonies", "setting": "K. pneumoniae K66-45; MEM 2 mg/L", "result": "nc (n.c. = no colonies)"}, {"measurement": "RF - no of colonies", "setting": "K. pneumoniae K66-45; MEM 4 mg/L", "result": "nc (n.c. = no colonies)"}, {"measurement": "RF - no of colonies", "setting": "K. pneumoniae K66-45; MEM 8 mg/L", "result": "nc (n.c. = no colonies)"}, {"measurement": "solution stability (adjuvant activity in MIC studies after storage)", "setting": "[6]", "result": "a loss of activity was observed after 5 months storage, and after 8 months the activity was absent"}]}
